The values below come from patent US12060349B2, “Glucosylceramide synthase inhibitors” (Genzyme Corporation, priority 2012, dated 2024).

The subject of one assay is B16 mouse melanoma cells. Description: cell viability in the B16 cell-based assay (Viability, B16 IC50). The conditions noted are these: Mus musculus, B16, B16 cells; concentration causing 50% cell death; values greater than 10 represent a lack of cell death; read-out: Viability, B16 IC50. In short, it runs like this:
(§1)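 Viability readouts were run alongside the GM3 cell-surface assay in the same B16 and C32 cultures. A figure above 10 indicates no cell death.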

Assay [1] deals with GM3 expression on the cell surface, C32 human melanoma cells. Description: cell based phenotypic assay, cell surface GM3 by antibody mediated immunofluorescence, C32 (GM3 C32 IC50). The conditions noted are these: Homo sapiens, C32 human melanoma cells; 50% inhibition of GM3 expression on the cell surface; read-out: GM3 C32 IC50. The method in brief:
(§2)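 Both lines undergo the phenotypic GM3 assay, and viability is recorded from that same cell-based run.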

Assay [2] addresses T1, glucosylceramide synthase (Homo sapiens, UniProt Q16739).
T1 construct: Microsomes were isolated from A375 human melanoma cells; endogenous in cells; host or cells: A375 human melanoma cells (microsomal fraction, 100,000 g pellet)
T1 sequence (Q16739 1-394): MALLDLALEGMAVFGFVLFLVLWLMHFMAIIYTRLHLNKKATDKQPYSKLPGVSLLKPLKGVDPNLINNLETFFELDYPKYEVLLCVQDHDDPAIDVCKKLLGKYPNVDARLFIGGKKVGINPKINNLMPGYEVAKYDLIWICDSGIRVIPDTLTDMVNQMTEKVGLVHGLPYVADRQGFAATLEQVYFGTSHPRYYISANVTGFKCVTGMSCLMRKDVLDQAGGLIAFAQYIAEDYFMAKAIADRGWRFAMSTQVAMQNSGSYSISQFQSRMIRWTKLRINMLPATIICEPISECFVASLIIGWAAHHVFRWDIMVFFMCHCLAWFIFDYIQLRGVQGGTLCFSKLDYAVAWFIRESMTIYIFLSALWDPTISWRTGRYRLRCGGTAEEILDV
Description: microsomal assay measuring conversion of ceramide to glucosylceramide by HPLC (GCS IC50). Format: biochemical. The conditions noted are these: concentration causing 50% inhibition of glucosylceramide synthase activity. The method in brief: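 IC50 is the compound concentration halving glucosylceramide synthase activity. Activity was measured in microsomes, with HPLC quantifying glucosylceramide formed from ceramide.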

A further assay concerns C32 human melanoma cells. Description: cell viability in the C32 cell-based assay (Viability, C32 IC50). The conditions noted are these: Homo sapiens, C32, C32 cells; concentration causing 50% cell death; values greater than 10 represent a lack of cell death; read-out: Viability, C32 IC50. In short, it runs like this: as §1
Assay [3] concerns GM3 expression on the cell surface, B16 mouse melanoma cells. Description: cell based phenotypic assay, cell surface GM3 by antibody mediated immunofluorescence, B16 (GM3 B16 IC50). The conditions noted are these: Mus musculus, B16 mouse melanoma cells; 50% inhibition of GM3 expression on the cell surface; read-out: GM3 B16 IC50. The method in brief: as §2

Molecules are shown by their SMILES.

As a reminder, the IC50 is the concentration that inhibits the measured activity by half. Consider `CC1(NC(=O)C2CN(c3cccc(-c4ccc(F)cc4)c3)C2)CCN2CCC1CC2` (stereo not drawn) [Example 114, 1-(4′-Fluoro-[1,1′-biphenyl]-3-yl)-N-(4-methyl-1-azabicyclo[3.2.2]nonan-4-yl)azetidine-3-carboxamide], for which the IC50 is 3460 nM in the assay on B16 mouse melanoma cells; 11.1 nM in assay [1]; 51 nM in assay [2]; 1000 nM with C32 human melanoma cells; 272 nM in assay [3].
For the compound `CC1(NC(=O)C2CCN(c3nccc(Oc4ccc(F)cc4)n3)CC2)CCN2CCC1CC2` (stereo not drawn) [Example 115, 1-(4-(4-Fluorophenoxy)pyrimidin-2-yl)-N-(4-methyl-1-azabicyclo[3.2.2]nonan-4-yl)piperidine-4-carboxamide], the IC50 in the assay on B16 mouse melanoma cells came out at 9300 nM; in assay [1], 0.14 nM; in assay [2], 2.45 nM; in the assay with C32 human melanoma cells, 46.4 nM; in assay [3] it was 8.94 nM.
Regarding `CC1(NC(=O)C2(F)CCN(c3nccc(Oc4ccc(F)cc4)n3)CC2)CCN2CCC1CC2` (stereo not drawn) [Example 116, 4-Fluoro-1-(4-(4-fluorophenoxy)pyrimidin-2-yl)-N-(4-methyl-1-azabicyclo[3.2.2]nonan-4-yl)piperidine-4-carboxamide], the IC50 in the assay with B16 mouse melanoma cells came out at 5720 nM; in assay [1], 0.155 nM; in assay [2] it was 1.43 nM; in the assay on C32 human melanoma cells, 100 nM; in assay [3], 15.9 nM.
For the compound `CC1(NC(=O)C2(F)CCN(c3ncnc(Oc4ccc(F)cc4)n3)CC2)CCN2CCC1CC2` (stereo not drawn) [Example 117, 4-Fluoro-1-(4-(4-fluorophenoxy)-1,3,5-triazin-2-yl)-N-(4-methyl-1-azabicyclo[3.2.2]nonan-4-yl)piperidine-4-carboxamide], the IC50 in the assay on B16 mouse melanoma cells is not below 10000 nM; in assay [1], 9.05 nM; in assay [2], 168 nM; in the assay with C32 human melanoma cells, 1000 nM; in assay [3] it was 88.4 nM.
As to `COCCOc1ccc(Oc2nc(N3CCC(F)(C(=O)NC4(C)CN5CCC4CC5)CC3)ncc2F)cc1` (stereo not drawn) [Example 118, 4-Fluoro-1-(5-fluoro-4-(4-(2-methoxyethoxy)phenoxy)pyrimidin-2-yl)-N-(3-methylquinuclidin-3-yl)piperidine-4-carboxamide], the IC50 is 4640 nM with B16 mouse melanoma cells; 1.16 nM in assay [1]; 2.54 nM in assay [2]; 1000 nM in the assay with C32 human melanoma cells; 63.4 nM in assay [3].
Turning to `CC1(NC(=O)C2(F)CCN(c3nccc(Oc4ccc(C#N)cc4)n3)CC2)CN2CCC1CC2` (stereo not drawn) [Example 119, 1-(4-(4-Cyanophenoxy)pyrimidin-2-yl)-4-fluoro-N-(3-methylquinuclidin-3-yl)piperidine-4-carboxamide], the IC50 in the assay with B16 mouse melanoma cells is not below 10000 nM; in assay [1], 0.476 nM; in assay [2], 6.71 nM; in the assay on C32 human melanoma cells it was 316 nM; in assay [3] it was 54.4 nM.
In the case of `CC1(NC(=O)C2(F)CCN(c3nccc(Oc4ccc(C#N)cc4)n3)CC2)CCN2CCC1CC2` (stereo not drawn) [Example 120, 1-(4-(4-Cyanophenoxy)pyrimidin-2-yl)-4-fluoro-N-(4-methyl-1-azabicyclo[3.2.2]nonan-4-yl)piperidine-4-carboxamide], the IC50 was not below 10000 nM in the assay on B16 mouse melanoma cells; 0.332 nM in assay [1]; 4.12 nM in assay [2]; 316 nM with C32 human melanoma cells; 18.8 nM in assay [3].
For `CC1(NC(=O)C2(F)CCN(c3ncc(C#N)c(Oc4ccc(F)cc4)n3)CC2)CN2CCC1CC2` (stereo not drawn) [Example 122, 1-(5-Cyano-4-(4-fluorophenoxy)pyrimidin-2-yl)-4-fluoro-N-(3-methylquinuclidin-3-yl)piperidine-4-carboxamide], the IC50 in the assay with B16 mouse melanoma cells was not below 10000 nM; in assay [1], 0.639 nM; in assay [2], 4.41 nM; in the assay with C32 human melanoma cells, 316 nM; in assay [3], 112 nM.
As for `CC1(NC(=O)C2(F)CCN(c3nccc(OC4CCOCC4)n3)CC2)CCN2CCC1CC2` (stereo not drawn) [Example 123, 4-Fluoro-N-(4-methyl-1-azabicyclo[3.2.2]nonan-4-yl)-1-(4-((tetrahydro-2H-pyran-4-yl)oxy)pyrimidin-2-yl)piperidine-4-carboxamide], the IC50 with B16 mouse melanoma cells is not below 10000 nM; in assay [1], 2.26 nM; in assay [2], 42.3 nM; in the assay with C32 human melanoma cells, 1000 nM; in assay [3], 226 nM.
Turning to `CC1(NC(=O)C2(F)CCN(c3nccc(OCc4ccc(F)cc4)n3)CC2)CCN2CCC1CC2` (stereo not drawn) [Example 124, 4-Fluoro-1-(4-((4-fluorobenzyl)oxy)pyrimidin-2-yl)-N-(4-methyl-1-azabicyclo[3.2.2]nonan-4-yl)piperidine-4-carboxamide], the IC50 turned out to be 3420 nM with B16 mouse melanoma cells; 0.0849 nM in assay [1]; 0.553 nM in assay [2]; 100 nM with C32 human melanoma cells; 17.8 nM in assay [3].
As for `CC1(NC(=O)C2(F)CCN(c3nccc(OCc4ccc(F)cc4)n3)CC2)CN2CCC1CC2` (stereo not drawn) [Example 125, 4-Fluoro-1-(4-((4-fluorobenzyl)oxy)pyrimidin-2-yl)-N-(3-methylquinuclidin-3-yl)piperidine-4-carboxamide], the IC50 came out at 4290 nM in the assay with B16 mouse melanoma cells; 0.0509 nM in assay [1]; 0.643 nM in assay [2]; 158 nM in the assay on C32 human melanoma cells; 17.7 nM in assay [3].
Regarding `CC1(NC(=O)C2(F)CCN(c3cncc(Oc4ccc(F)cc4)n3)CC2)CCN2CCC1CC2` (stereo not drawn) [Example 126, 4-Fluoro-1-(6-(4-fluorophenoxy)pyrazin-2-yl)-N-(4-methyl-1-azabicyclo[3.2.2]nonan-4-yl)piperidine-4-carboxamide], the concentration for half-maximal inhibition (IC50) turned out to be 6260 nM in the assay with B16 mouse melanoma cells; 0.726 nM in assay [1]; 1.57 nM in assay [2]; 1000 nM with C32 human melanoma cells; 36 nM in assay [3].
With `CC1(NC(=O)C2(F)CCN(c3cncc(Oc4ccc(F)cc4)c3)CC2)CCN2CCC1CC2` (stereo not drawn) [Example 127, 4-Fluoro-1-(5-(4-fluorophenoxy)pyridin-3-yl)-N-(4-methyl-1-azabicyclo[3.2.2]nonan-4-yl)piperidine-4-carboxamide], the IC50 in the assay on B16 mouse melanoma cells was 6980 nM; in assay [1], 0.569 nM; in assay [2], 2.27 nM; in the assay on C32 human melanoma cells, 316 nM; in assay [3] it was 106 nM.
With `CC1(NC(=O)C2(F)CCN(c3ncnc(OCc4ccc(F)cc4)n3)CC2)CCN2CCC1CC2` (stereo not drawn) [Example 128, 4-Fluoro-1-(4-((4-fluorobenzyl)oxy)-1,3,5-triazin-2-yl)-N-(4-methyl-1-azabicyclo[3.2.2]nonan-4-yl)piperidine-4-carboxamide], the IC50 was not below 10000 nM with B16 mouse melanoma cells; 3.4 nM in assay [1]; 19.8 nM in assay [2]; 1000 nM with C32 human melanoma cells; 654 nM in assay [3].
Take `CC1(NC(=O)C2(F)CCN(c3ncc(Oc4ccc(F)cc4)cn3)CC2)CN2CCC1CC2` (stereo not drawn) [Example 129, 4-Fluoro-1-(5-(4-fluorophenoxy)pyrimidin-2-yl)-N-(3-methylquinuclidin-3-yl)piperidine-4-carboxamide]: the IC50 worked out at 8260 nM with B16 mouse melanoma cells; 0.38 nM in assay [1]; 4.27 nM in assay [2]; 316 nM with C32 human melanoma cells; 97.8 nM in assay [3].
